Among the data in patent US20230234936A1, “COMPOUND FOR TARGETING AND DEGRADING PROTEIN, AND PREPARATION METHOD THEREFOR AND USE THEREOF” (SHANGHAI LEADINGTAC PHARMACEUTICAL CO., LTD., priority 2020, published 2023) are IKZF3 degradation rate and IC50 values, retold here.

Molecules are shown by their SMILES.

The target of one test is T1, IKZF3 in L363 cells (Homo sapiens, UniProt Q96SW2+Q9UKT9).
T1 construct: endogenous in cells; host or cells: L363
In words: Degradation of IKZF3 in L363 cells (Western blot). In kind it is cell-based. To be noted: 1000 nM, 16 hours. The procedure:
The 24-well cell culture plate was inoculated with 0.95 mL L363 cells (Nanjing Co-bioer) per well with a cell density of 6×10^5 cells/well. The cell plate was placed in a 5% carbon dioxide incubator and cultured at 37° C. for 8 hours, then 50 μL of compound solution was added. The final concentration of the compound was 1000 nM. After continuing to culture for 16 hours, the cells were collected into a 1.5 mL centrifuge tube and centrifuged at 3000 rpm and 4° C. for 5 minutes. Cell precipitation was cleaned twice with 1×DPBS, resuspended cells were lysed with 100 μL lysate (cell lysate was Western and IP cell lysate (Beyotime), supplemented with 1 mM mixture of phenylmethylsulfonyl fluoride and protease inhibitor (Beyotime)), left on ice for 30 minutes, then centrifuged at 14000 g at 4° C. for 10 minutes, and the supernatant was taken to detect IKZF1 and IKZF3 protein level by Western blot.
The total protein concentration in the supernatant of cell lysis was determined by BCA protein quantitative kit (Tiangen). According to the concentration of total protein detected by BCA, the supernatant was adjusted to 0.2 μg/μL with PBS and 5× SDS-PAGE protein loading buffer (Beyotime), bathed in water at 100° C. for 10 minutes, then placed in ice bath for 5 minutes, centrifuged at 14000 g and 4° C. for 5 minutes, and then collected as WB loading sample. Prefabricated glue (KeyGEN) was used for protein electrophoresis with a loading amount of 10 μL (total protein 2 μg). After Tris-MOPS-SDS electrophoresis solution (Adamas), 120V constant pressure electrophoresis was performed. After electrophoresis, the protein on the adhesive strip was transferred to PVDF membrane with a constant current of […] for 50 minutes. After the membrane was transferred, the membrane was incubated in 5% bovine serum albumin solution for 2 hours at room temperature. After blocking, PVDF membranes were incubated with IKZF1 primary antibody (CST) and IKZF3 primary antibody (Abcam) overnight at 4°, the membranes were washed with TBST buffer (2.4 g Tris, 8.8 g NaCl, 1.5 mL Tween 20, pH adjusted to 7.4, constant volume to IL) for 30 minutes, incubated with secondary antibody (Abcam) for 2 hours at room temperature, finally incubated with Clarity Western ECL Substrate(BIO-RAD) for 5 minutes for luminescence development, chemiluminescence imaging system (Clinx, chemiScope 6200 Touch) for development and protein mapping photography. The protein map was analyzed by Clinx chemiluminescence analysis software for grayscale values. Using the formula: grayscale correction value=(target protein grayscale value/corresponding internal reference grayscale value)×10^3, the grayscale correction value of each sample was calculated. The degradation rate was calculated by comparing with the grayscale correction value of the control group.

The test system of test [1] is Interleukin-6 (IL-6) in LPS-induced human PBMC. In words: Cytokine secretion of LPS-induced human PBMC, IL-6 AlphaLISA detection. In kind it is cell-based. To be noted: inhibition of IL-6, compound 1 hour or 20 hours, then LPS 100 ng/mL 5 hours. Here is the method:
Frozen human PBMC (Milestone, PB010C) was resuspended to RPMI 1640 medium (Gibco, A1049101) after resuscitation, supplemented with 10% fetal bovine serum (Gibco, 10099141), 100 U/mL penicillin and 100 μg/mL streptomycin (Gibco, 15140122). On the same day, 150 μL of PBMC was spread in each well of a 96-well transparent cell plate (Labserv, 310109008), so that the cell density was 2×10^5 cells/well. Then 50 μL diluted compound solution was added to the corresponding cell-covered wells to make the final concentration of the compound in the range of 0.026-10000 nM. The final concentration of DMSO was 0.25%. After the drug-treated cell plate was cultured at 37° C. for 1 hour or 20 hours in a 5% CO2 incubator, 10 μL LPS (0111:B4) (Sigma, L4391) was added with a final concentration of 100 ng/mL. The cell plate was again placed in a 5% CO2 incubator at 37° C. for 5 hours, centrifuged at 2000 rpm for 10 minutes, and 100 μL cell supernatant was taken from each well and transferred to a new 96-well transparent cell plate for cytokine concentration test, which was frozen at −80° C. to be tested.
The concentration of IL-6 in the supernatant of LPS-induced human PBMC cells was determined using interleukin-6 (IL-6) AlphaLISA detection kit (PerkinElmer, AL223 C).
According to the product instructions, IL-6 standard solutions with different concentrations were prepared in the concentration range of […]. 2 μL of IL-6 standard solution at various concentrations and the cell supernatant sample to be tested were taken, respectively added to white 384 well plates (PerkinElmer, 6007299), then a mixed solution of 8 μL of 5× anti-IL-6 receptor beads (final concentration: 10 μg/mL) and biotin-labeled anti-IL-6 antibody (final concentration 1 nM) was added to each well, and incubated at 23° C. for 60 minutes. Finally, 10 μL of 2× streptavidin-labeled donor beads (final concentration: 40 μg/mL) were added to each well and incubated at 23° C. for 30 minutes in the absent of light. After the incubation, the AlphaLISA signal value was determined in the AlphaScreen standard setting mode on the microplate reader EnVision(PerkinElmer, 2105). The standard curve was drawn by the AlphaLISA signal value of each concentration IL-6 standard solution, and then based on the corresponding concentration on the standard curve for the AlphaLISA signal value of the sample to be tested, the IL-6 concentration of each cell lysis supernatant was determined. Compared with the IL-6 concentration of the control group, the inhibition rate of the compound at each concentration was calculated, and then IC50 value of the compound was calculated by fitting the nonlinear curve with the logarithmic concentration-inhibition rate by GraphPad Prism 7.

T1 sequence (Q9UKT9 whole entry): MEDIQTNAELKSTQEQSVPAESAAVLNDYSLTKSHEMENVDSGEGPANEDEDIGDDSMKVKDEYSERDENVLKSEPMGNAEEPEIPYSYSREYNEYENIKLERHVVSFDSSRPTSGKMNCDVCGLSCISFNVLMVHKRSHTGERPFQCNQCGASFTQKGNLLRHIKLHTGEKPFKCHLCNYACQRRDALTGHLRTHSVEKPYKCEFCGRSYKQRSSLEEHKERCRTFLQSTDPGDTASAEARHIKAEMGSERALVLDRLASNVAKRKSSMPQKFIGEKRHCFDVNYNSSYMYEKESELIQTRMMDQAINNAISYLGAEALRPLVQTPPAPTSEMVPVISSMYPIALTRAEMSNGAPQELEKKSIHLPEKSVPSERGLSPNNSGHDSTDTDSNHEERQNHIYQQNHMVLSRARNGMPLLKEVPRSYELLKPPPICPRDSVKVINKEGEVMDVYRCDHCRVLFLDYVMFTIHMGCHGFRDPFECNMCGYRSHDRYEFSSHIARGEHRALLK
T1 sequence (Q96SW2 whole entry): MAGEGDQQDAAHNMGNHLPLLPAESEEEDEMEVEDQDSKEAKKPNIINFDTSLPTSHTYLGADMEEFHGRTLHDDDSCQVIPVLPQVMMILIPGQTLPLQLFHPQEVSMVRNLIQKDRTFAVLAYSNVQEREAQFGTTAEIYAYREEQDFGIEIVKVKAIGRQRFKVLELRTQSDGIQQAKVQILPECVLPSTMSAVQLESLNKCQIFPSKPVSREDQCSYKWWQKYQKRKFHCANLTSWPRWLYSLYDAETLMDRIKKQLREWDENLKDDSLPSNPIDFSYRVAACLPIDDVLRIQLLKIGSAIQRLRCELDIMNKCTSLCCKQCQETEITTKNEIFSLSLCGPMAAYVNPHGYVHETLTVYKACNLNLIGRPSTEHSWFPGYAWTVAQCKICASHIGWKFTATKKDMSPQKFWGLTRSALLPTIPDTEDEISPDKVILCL
T1 sequence (Q16531 whole entry partner): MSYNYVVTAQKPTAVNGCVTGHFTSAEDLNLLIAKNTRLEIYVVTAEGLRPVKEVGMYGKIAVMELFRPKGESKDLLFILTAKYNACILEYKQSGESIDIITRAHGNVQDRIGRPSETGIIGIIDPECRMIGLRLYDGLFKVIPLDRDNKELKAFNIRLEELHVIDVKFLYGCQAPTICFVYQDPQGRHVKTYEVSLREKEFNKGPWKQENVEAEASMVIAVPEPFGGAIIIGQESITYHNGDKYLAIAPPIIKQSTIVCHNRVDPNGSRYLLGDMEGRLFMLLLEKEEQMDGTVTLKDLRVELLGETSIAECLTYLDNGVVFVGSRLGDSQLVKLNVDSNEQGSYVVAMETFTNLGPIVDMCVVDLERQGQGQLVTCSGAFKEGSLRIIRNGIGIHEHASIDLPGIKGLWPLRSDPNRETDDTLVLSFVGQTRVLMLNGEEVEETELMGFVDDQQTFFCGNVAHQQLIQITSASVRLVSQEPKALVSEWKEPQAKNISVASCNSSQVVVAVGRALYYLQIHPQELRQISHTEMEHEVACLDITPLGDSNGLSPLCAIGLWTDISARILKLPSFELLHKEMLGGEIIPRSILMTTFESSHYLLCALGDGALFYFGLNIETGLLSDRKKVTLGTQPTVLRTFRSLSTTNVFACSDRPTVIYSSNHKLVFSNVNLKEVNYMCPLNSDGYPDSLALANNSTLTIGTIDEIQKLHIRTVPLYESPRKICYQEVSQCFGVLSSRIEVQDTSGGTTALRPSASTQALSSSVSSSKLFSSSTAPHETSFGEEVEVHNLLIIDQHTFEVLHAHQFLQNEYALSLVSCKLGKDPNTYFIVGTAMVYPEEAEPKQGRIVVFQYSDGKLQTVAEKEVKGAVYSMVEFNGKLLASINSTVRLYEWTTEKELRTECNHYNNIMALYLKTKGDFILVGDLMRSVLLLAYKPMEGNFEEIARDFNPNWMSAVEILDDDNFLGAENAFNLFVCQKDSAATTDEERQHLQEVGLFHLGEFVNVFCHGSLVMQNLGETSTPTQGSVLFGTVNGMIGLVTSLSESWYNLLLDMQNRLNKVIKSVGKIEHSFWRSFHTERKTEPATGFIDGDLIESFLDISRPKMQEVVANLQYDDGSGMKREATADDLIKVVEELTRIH

`COc1cc2nn(C3CCN(CC4CCN(CCOc5ccc6c(c5)C(=O)N(C5CCC(=O)NC5=O)C6=O)CC4)CC3)cc2cc1NC(=O)c1cccc(C(F)(F)F)n1` (stereo not drawn) [Control group 2, N-(2-(1-((1-(2-((2-(2,6-dioxopiperidin-3-yl)-1,3-dioxoisoindol-5-yl)oxy)ethyl)piperidin-4-yl)methyl)piperidin-4-yl)-6-methoxy-2H-indazol-5-yl)-6-(trifluoromethyl) pyridinecarboxamide, reference compound] had an IKZF3 degradation rate at IKZF3 in L363 cells of 71.2 ± 5.7%. This molecule returned an IC50 in test [1] of 2050 nM.

At IKZF3 in L363 cells, `CN(CC1CCN(c2cccc3c2C(=O)N(C2CCC(=O)NC2=O)C3=O)CC1)C[C@H]1CC[C@H](n2cc3cc(NC(=O)c4cccc(C(F)(F)F)n4)c(C(C)(C)O)cc3n2)CC1` (stereo partly drawn) [Control group 3, N-(2-((1r,4r)-4-((((1-(2-(2,6-dioxopiperidin-3-yl)-1,3-dioxoisoindolin-4-yl)piperidin-4-yl)methyl) (methyl)amino)methyl)cyclohexyl)-6-(2-hydroxyprop-2-yl)-2H-indazol-5-yl)-6-(trifluoromethyl) pyridinecarboxamide, reference compound] yielded an IKZF3 degradation rate of 92.8 ± 5.0%. For the same molecule, in test [1], the IC50 was determined as 47.5 nM.

Turning to `CC(C)(O)c1cc2nn(C3CCN(CC4CCC5(CC4)CCN(C(=O)c4ccc(Cl)c(N6CCC(=O)NC6=O)c4)CC5)CC3)cc2cc1NC(=O)c1cccc(C(F)(F)F)n1` [Example 31, N-(2-(1-((3-(4-chloro-3-(2,4-dioxotetrahydro-pyrimidin-1 (2H)-yl)benzoyl)-3-azaspiro [5.5]undec-9-yl)methyl)piperdin-4-yl)-6-(2-hydroxyprop-2-yl)-2H-indazol-5-yl)-6-(trifluoro-methyl) pyridinecarbox-amide], the IKZF3 degradation rate on IKZF3 in L363 cells is listed as 17.8 ± 3.6%. The IC50 in test [1] worked out at 1.8 nM.
